According to patent US8883779B2, “Oxazine derivatives and a pharmaceutical composition for inhibiting BACE1 containing them” (Shinogi & Co., Ltd., priority 2011, dated 2014):

What was measured:
Recombinant human BACE1 = target: T1, Recombinant human BACE1 (Homo sapiens, UniProt P56817); assay: Assay of BACE1 inhibiting activity; format: biochemical; conditions: Recombinant human BACE1 7.4 nmol/L, substrate peptide 18 nmol/L, pH 5.0, 30° C., 3.5 hours; read-out: 50% inhibitory concentration against the enzymatic activity (IC50)
T1 construct: purchased R&D Systems
Method: 48.5 μL of substrate peptide solution (Biotin-XSEVNLDAEFRHDSGC-Eu: X=ε-amino-n-capronic acid, Eu=Europium cryptate) was added to each well of 96-hole half-area plate (a black plate: Costar), and after addition of 0.5 μl of the compound of the present invention (DMSO solution) and 1 μl of Recombinant human BACE1(R&D Systems), the reaction mixture was incubated at 30° C. for 3.5 hours. The substrate peptide was synthesized by reacting Cryptate TBPCOOH mono SMP (CIS bio international) with Biotin-XSEVNLDAEFRHDSGC (Peptide Institute, Inc.). The final concentrations of the substrate peptide and Recombinant human BACE1 were adjusted to 18 nmol/L and 7.4 nmol/L, respectively, and the reaction was performed in sodium acetate buffer (50 mmol/L sodium acetate, pH 5.0, 0.008% Triton X-100).
After the incubation for reaction, 50 μl of 8.0 μg/ml Streptavidin-XL665 (CIS bio international) dissolved in phosphate buffer (150 mmol/L K2 HPO4—KH2 PO4, pH 7.0, 0.008% Triton X-100, 0.8 mol/L KF) was added to each well and left stand at 30° C. for 45 minutes. After then, fluorescence intensity was measured (excitation wavelength: 320 nm, measuring wavelength: 620 nm and 665 nm) using Wallac 1420 multilabel counter (Perkin Elmer life sciences).

[1] = Solubility test (turbidity, JP-I / JP-II medium); format: physicochemical; conditions: pH 6.8, aqueous buffer, kinetic from dmso stock, 2% DMSO solution, turbidity after 4 hours, read-out: solubility assessed by 3 stages
CYP2C19 = target: T2, CYP2C19 (Homo sapiens, UniProt P33261); assay: CYP inhibition test, mephenyloin 4'-hydroxylation; format: in vitro ADME; conditions: pooled human liver microsomes, 50 μmol/L S-mephenyloin
T2 construct: The commercially available pooled human liver microsomes were used; from tissue; host or cells: pooled human liver microsomes
Description: (§1) The test is to assess the inhibitory effect of a compound of the present invention towards typical substrate metabolism reactions on CYP enzymes in human liver microsomes. The commercially available pooled human liver microsomes were used.
(§2) The marker reactions on human main five CYP enzymes (CYP1A2, 2C9, 2C19, 2D6, and 3A4) were used as follows; 7-ethoxyresorufin O-deethylation (CYP1A2), tolbutamide methyl-hydroxylation (CYP2C9), mephenyloin 4′-hydroxylation (CYP2C19), dextromethorphan O-demethylation (CYP2D6), and terfenadine hydroxylation (CYP3A4 […]
(§3) Five kinds of substrates, human liver microsomes, or a compound of the present invention in 50 mmol/L Hepes buffer was added to a 96-well plate at the composition as described above as a reaction solution. […] After the centrifugation at 3000 rpm for 15 minutes, resorufin (CYP1A2 metabolite) in the supernatant was quantified by a fluorescent plate reader, and hydroxytolbutamide (CYP2C9 metabolite), 4′-hydroxymephenyloin (CYP2C19 metabolite), dextrorphan (CYP2D6 metabolite), and terfenadine alcohol metabolite (CYP3A4 metabolite) in the supernatant were quantified by LC/MS/MS. […]

CYP2C9 = target: T3, CYP2C9 (Homo sapiens, UniProt P11712); assay: CYP inhibition test, tolbutamide methyl-hydroxylation; format: in vitro ADME; conditions: pooled human liver microsomes, 100 μmol/L tolbutamide
T3 construct: The commercially available pooled human liver microsomes were used; from tissue; host or cells: pooled human liver microsomes
Description: as §1, §2, §3

CYP2D6 = target: T4, CYP2D6 (Homo sapiens, UniProt P10635); assay: CYP inhibition test, dextromethorphan O-demethylation; format: in vitro ADME; conditions: pooled human liver microsomes, 5 μmol/L dextromethorphan
T4 construct: The commercially available pooled human liver microsomes were used; from tissue; host or cells: pooled human liver microsomes
Description: as §1, §2, §3

CYP1A2 = target: T5, CYP1A2 (Homo sapiens, UniProt P05177); assay: CYP inhibition test, 7-ethoxyresorufin O-deethylation; format: in vitro ADME; conditions: pooled human liver microsomes, 0.5 μmol/L ethoxyresorufin
T5 construct: The commercially available pooled human liver microsomes were used; from tissue; host or cells: pooled human liver microsomes
T5 sequence (P05177 1-516): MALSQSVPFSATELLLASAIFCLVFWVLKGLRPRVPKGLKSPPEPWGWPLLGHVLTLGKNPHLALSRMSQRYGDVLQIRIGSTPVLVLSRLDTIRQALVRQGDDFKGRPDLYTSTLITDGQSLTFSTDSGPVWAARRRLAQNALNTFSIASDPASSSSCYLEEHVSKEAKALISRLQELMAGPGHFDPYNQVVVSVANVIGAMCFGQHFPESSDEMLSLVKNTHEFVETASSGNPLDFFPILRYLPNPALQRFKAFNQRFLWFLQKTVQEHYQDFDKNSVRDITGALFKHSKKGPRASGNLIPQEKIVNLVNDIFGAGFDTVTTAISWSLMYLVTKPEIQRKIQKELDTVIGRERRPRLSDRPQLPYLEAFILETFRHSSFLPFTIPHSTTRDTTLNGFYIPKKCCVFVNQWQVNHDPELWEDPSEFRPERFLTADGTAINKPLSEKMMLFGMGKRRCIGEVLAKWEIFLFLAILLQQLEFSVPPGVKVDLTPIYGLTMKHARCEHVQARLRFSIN
Description: as §1, §2, §3

CYP3A4 = target: T6, CYP3A4 (Homo sapiens, UniProt P08684); assay: CYP inhibition test, terfenadine hydroxylation; format: in vitro ADME; conditions: pooled human liver microsomes, 1 μmol/L terfenadine
T6 construct: The commercially available pooled human liver microsomes were used; from tissue; host or cells: pooled human liver microsomes
Description: as §1, §2, §3

[2] = Metabolism stability test; format: in vitro ADME; conditions: human liver microsomes 0.5 mg protein/mL, 1 mmol/L NADPH, 37° C., 30 minutes
Method: Using a commercially available pooled human liver microsomes, a compound of the present invention is reacted for a constant time, a remaining rate is calculated by comparing a reacted sample and an unreacted sample, thereby, a degree of metabolism in liver was assessed.
A reaction was performed (oxidative reaction) at 37° C. for 0 minute or 30 minutes in the presence of 1 mmol/L NADPH in 0.2 mL of a buffer (50 mmol/L Tris-HCl pH 7.4, 150 mmol/L potassium chloride, 10 mmol/L magnesium chloride) containing 0.5 mg protein/mL of human liver microsomes. After the reaction, 50 μL of the reaction solution was added to 100 μL of a methanol/acetonitrile=1/1 (v/v), mixed and centrifuged at 3000 rpm for 15 minutes. The compound of the present invention in the supernatant was quantified by LC/MS/MS, and a remaining amount of the compound of the present invention after the reaction was calculated, letting a compound amount at 0 minute reaction time to be 100%.

[3] = target: T7, CYP3A4 enzyme (enzyme expressed in Escherichia coli) (Homo sapiens, UniProt P08684); assay: CYP3A4 fluorescent MBI test; format: in vitro ADME; conditions: 7-BFC substrate, pre-reaction time 0 or 30 minutes
T7 construct: host or cells: Escherichia coli
Method: The CYP3A4 fluorescent MBI test is a test of investigating enhancement of CYP3A4 inhibition of a compound by a metabolism reaction. 7-benzyloxytrifluoromethylcoumarin (7-BFC) is debenzylated by the CYP3A4 enzyme (enzyme expressed in Escherichia coli) and 7-hydroxytrifluoromethylcoumarin (7-HFC) is produced as a fluorescing metabolite. The test is performed using 7-HFC production reaction as an index.
The reaction conditions are as follows: substrate, 5.6 μmol/L 7-BFC; pre-reaction time, 0 or 30 minutes; substrate reaction time, 15 minutes; reaction temperature, 25° C. […]
An enzyme in a K-Pi buffer (pH 7.4) and a compound of the present invention solution as a pre-reaction solution were added to a 96-well plate at the composition of the pre-reaction. […] Fluorescent values of 7-HFC as a metabolite were measured in each index reaction plate with a fluorescent plate reader. […]
The sample adding DMSO to a reaction system instead of compound of the present invention solution was adopted as a control (100%) because DMSO is used as a solvent to dissolve a compound of the present invention. Remaining activity (%) was calculated at each concentration of the compound of the present invention added as the solution, and IC50 was calculated by reverse-presumption by a logistic model using a concentration and an inhibition rate. […]

T1 sequence (P56817 46-501): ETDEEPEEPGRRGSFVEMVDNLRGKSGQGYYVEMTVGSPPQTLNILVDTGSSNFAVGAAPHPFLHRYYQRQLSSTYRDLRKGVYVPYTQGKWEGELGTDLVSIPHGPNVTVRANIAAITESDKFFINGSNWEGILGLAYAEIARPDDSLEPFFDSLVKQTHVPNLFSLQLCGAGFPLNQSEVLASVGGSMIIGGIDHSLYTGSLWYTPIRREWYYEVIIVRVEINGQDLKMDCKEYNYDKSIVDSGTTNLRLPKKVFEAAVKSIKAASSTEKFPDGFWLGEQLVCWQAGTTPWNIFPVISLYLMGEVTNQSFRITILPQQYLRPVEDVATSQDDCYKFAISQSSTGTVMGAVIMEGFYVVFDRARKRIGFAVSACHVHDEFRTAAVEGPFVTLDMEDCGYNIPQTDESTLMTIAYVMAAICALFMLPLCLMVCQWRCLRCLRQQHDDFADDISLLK
T4 sequence (P10635 whole entry): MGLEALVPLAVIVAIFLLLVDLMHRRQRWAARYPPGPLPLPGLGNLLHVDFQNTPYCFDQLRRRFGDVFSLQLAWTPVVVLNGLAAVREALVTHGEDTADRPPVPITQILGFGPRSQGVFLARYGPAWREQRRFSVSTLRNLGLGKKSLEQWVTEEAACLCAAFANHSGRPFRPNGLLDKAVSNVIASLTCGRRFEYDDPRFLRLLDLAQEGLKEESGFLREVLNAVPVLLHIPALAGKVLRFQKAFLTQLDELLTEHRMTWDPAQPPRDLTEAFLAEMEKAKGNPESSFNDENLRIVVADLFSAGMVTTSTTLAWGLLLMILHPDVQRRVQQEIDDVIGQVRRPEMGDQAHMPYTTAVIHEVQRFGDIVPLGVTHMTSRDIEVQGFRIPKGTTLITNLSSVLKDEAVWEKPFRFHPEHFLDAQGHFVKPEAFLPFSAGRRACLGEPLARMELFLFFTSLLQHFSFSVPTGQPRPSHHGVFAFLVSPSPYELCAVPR
T3 sequence (P11712 whole entry): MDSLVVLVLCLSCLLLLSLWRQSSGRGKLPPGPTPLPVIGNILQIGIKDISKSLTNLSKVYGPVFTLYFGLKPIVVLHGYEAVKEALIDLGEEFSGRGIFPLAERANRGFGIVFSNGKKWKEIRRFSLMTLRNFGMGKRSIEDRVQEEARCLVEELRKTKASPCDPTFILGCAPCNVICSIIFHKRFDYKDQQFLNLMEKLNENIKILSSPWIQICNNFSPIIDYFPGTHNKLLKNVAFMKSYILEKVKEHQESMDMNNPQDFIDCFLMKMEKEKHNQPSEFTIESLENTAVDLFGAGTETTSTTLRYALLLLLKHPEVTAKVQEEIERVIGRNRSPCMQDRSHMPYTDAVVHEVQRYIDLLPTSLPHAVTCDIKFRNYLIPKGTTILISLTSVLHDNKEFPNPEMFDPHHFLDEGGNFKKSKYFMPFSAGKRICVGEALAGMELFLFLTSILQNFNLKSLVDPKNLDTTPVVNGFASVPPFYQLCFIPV
T2 sequence (P33261 whole entry): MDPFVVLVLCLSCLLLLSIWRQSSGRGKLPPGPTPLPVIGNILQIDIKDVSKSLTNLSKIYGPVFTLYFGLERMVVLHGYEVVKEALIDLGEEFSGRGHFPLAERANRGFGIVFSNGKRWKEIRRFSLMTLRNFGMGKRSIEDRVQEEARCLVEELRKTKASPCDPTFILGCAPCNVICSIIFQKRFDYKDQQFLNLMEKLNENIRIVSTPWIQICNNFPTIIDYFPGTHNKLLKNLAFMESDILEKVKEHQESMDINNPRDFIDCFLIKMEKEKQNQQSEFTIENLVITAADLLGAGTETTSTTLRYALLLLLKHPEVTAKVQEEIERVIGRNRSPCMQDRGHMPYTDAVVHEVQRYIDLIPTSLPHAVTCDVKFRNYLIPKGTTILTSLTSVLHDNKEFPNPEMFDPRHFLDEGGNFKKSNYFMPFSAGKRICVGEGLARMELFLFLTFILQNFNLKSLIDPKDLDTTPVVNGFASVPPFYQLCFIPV
T7 sequence (P08684 whole entry): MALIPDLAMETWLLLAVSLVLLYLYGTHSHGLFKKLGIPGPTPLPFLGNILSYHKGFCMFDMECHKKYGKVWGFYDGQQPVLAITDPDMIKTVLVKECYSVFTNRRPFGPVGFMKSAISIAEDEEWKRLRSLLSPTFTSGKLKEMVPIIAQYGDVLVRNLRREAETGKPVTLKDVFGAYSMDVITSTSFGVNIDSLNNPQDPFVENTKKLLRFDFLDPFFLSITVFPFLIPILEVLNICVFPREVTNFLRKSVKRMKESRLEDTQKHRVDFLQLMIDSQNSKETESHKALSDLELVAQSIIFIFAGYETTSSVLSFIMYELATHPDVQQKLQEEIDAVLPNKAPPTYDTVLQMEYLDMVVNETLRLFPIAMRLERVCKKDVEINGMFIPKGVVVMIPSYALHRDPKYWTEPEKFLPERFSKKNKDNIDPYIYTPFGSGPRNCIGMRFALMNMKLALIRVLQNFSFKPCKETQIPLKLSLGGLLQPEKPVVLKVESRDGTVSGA
T6 sequence (P08684 whole entry): as above

C[C@@]1(c2cc(NC(=O)c3ccc(C#N)cn3)ccc2F)C=C(C(F)F)OC(N)=N1 [Compound I-2]
IC50 (Recombinant human BACE1): 5.3 nM

C[C@@]1(c2cc(NC(=O)c3ccc(C#N)cn3)ccc2F)C=C(CO)OC(N)=N1 [Compound I-4]
IC50 (Recombinant human BACE1): 10.6 nM

CC1=C[C@@](C)(c2cc(NC(=O)c3ccc(C(F)F)cn3)ccc2F)N=C(N)O1 [Compound I-5]
solubility at 4 h [1]: > 40 µM

C[C@@]1(c2cc(NC(=O)c3ncc(C#N)cc3F)ccc2F)C=COC(N)=N1 [Compound I-9]
IC50 (CYP2C19): > 20 µM
IC50 (CYP2C9): > 20 µM
IC50 (CYP2D6): > 20 µM
IC50 (CYP1A2): > 20 µM
IC50 (CYP3A4): > 20 µM

C[C@@]1(c2cc(NC(=O)c3cnc(OC(F)F)cn3)ccc2F)C=COC(N)=N1 [Compound I-8]
IC50 (Recombinant human BACE1): 10.3 nM
remaining amount of the compound after the reaction [2]: 99%

CC1=C[C@@](C)(c2cc(NC(=O)c3cnc(OCF)cn3)ccc2F)N=C(N)O1 [Compound I-1]
CYP3A4 MBI: difference of IC50 without and with preincubation [3]: (−) (the difference is 3 μM or less)

CC1=C[C@@](C)(c2cc(NC(=O)c3ccc(C#N)cn3)ccc2Cl)N=C(N)O1 [Compound I-11]
IC50 (Recombinant human BACE1): 64 nM
